The record followed here is US20120214847A1, “2-[1-PHENYL-5-HYDROXY-4a-SUBSTITUTED-HEXAHYDROCYCLOPENTA[F]INDAZOL-5-YL]ETHYL PHENYL DERIVATIVES AS GLUCOCORTICOID RECEPTOR LIGANDS” (Merck Sharp & Dohme Corp., priority 2009, published 2012).

The experiment concerns the target T1, human GR (Homo sapiens, UniProt P04150).
T1 construct: naturally expresses the human GR; endogenous in cells
T1 sequence (P04150 1-777): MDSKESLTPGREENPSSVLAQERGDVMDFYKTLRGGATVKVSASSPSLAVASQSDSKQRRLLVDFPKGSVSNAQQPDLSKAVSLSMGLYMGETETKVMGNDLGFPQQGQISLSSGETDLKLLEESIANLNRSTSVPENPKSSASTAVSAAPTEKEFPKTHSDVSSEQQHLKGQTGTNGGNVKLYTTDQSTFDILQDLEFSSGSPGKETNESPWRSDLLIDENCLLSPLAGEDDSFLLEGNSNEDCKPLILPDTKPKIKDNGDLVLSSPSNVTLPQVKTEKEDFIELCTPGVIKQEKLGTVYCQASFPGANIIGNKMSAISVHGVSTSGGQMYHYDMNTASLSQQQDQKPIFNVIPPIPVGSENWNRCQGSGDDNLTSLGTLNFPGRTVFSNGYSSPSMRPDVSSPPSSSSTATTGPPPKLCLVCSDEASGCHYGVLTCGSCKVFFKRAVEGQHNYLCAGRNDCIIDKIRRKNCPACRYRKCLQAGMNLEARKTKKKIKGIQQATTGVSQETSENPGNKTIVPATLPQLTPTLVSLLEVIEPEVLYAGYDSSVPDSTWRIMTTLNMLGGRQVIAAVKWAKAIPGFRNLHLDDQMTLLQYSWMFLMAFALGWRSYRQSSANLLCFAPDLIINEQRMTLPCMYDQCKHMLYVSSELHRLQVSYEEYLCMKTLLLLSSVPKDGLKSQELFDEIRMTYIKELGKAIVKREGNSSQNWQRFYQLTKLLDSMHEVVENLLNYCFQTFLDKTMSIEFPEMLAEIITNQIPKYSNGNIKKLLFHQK
In words: Trans-activation modulation of glucocorticoid receptor (GRAMMER), MMTV-LUC reporter in A549 cells. In kind it is cell-based. The following applies: for Transactivation A549 Cells Grammer Emax (%) / Emax: Emax relative to the activity obtained with 300 nM dexamethasone; for Transactivation A549 Cells Grammer Emax (%) / EC50: A549 cells; for EC50: IP = inflection point, read-out: Transactivation A549 Cells Grammer IP; for Emax: A549, A549 cells, read-out: Transactivation A549 Cells Grammer Emax (%).

For `OC(C[C@]1(O)CCC2=Cc3c(cnn3-c3ccc(F)cc3)C[C@@]21C1CC1)c1ccc(F)cn1` (single isomer, unassigned) [Example 79b], the “Transactivation A549 Cells Grammer Emax (%)” value is recorded as 8% and the EC50 came to 46 nM.
The term Emax denotes the greatest response seen or fitted, relative to the assay's reference. Consider `CC[C@]12Cc3cnn(-c4ccc(F)cc4)c3C=C1CC[C@@]2(O)CCc1ncccc1S(C)(=O)=O` [Example 80, (4aS,5R)-4a-Ethyl-1-(4-fluorophenyl)-5-{2-[3-(methylsulfonyl)pyridin-2-yl]ethyl}-1,4,4a,5,6,7-hexahydrocyclopenta[f]indazol-5-ol], for which the Emax came out at 38% and the EC50 worked out at 56 nM.
As for `CC[C@]12Cc3cnn(-c4ccccc4)c3C=C1CC[C@@]2(O)CC(O)c1ccccn1` (single isomer, unassigned) [Example 82b], the “Transactivation A549 Cells Grammer Emax (%)” value is 10% and the EC50 came to 174 nM.
For the molecule `OCc1ccccc1CC[C@]1(O)CCC2=Cc3c(cnn3-c3ccc(F)cc3)C[C@@]21C1CC1` [Example 2, (4aR,5R)-4a-Cyclopropyl-1-(4-fluorophenyl)-5-{2-[2-(hydroxymethyl)phenyl]ethyl}-1,4,4a,5,6,7-hexahydrocyclopenta[f]indazol-5-ol], the Emax worked out at 24% and the EC50 came out at 22 nM.
Regarding `CC[C@]12Cc3cnn(-c4ccccc4)c3C=C1CC[C@@]2(O)CCc1ncccc1S(=O)(=O)C(C)C` [Example 81, (4aS,5R)-4a-Ethyl-5-{2-[3-(iso-propylsulfonyl)pyridin-2-yl]ethyl}-1-phenyl-1,4,4a,5,6,7-hexahydrocyclopenta[f]indazol-5-ol], the Emax was found to be 36% and the EC50 worked out at 96 nM.
Consider `NC(=O)C(O)c1ccccc1CC[C@]1(O)CCC2=Cc3c(cnn3-c3ccc(F)cc3)C[C@@]21C1CC1` (single isomer, unassigned) [Example 3a], for which the “Transactivation A549 Cells Grammer Emax (%)” value turned out to be 7% and the EC50 was determined as 125 nM.
Taken in the same sequence, the figures for `CC[C@]12Cc3cnn(-c4ccccc4)c3C=C1CC[C@@]2(O)CC(O)c1ccccn1` (single isomer, unassigned) [Example 82a] were 20% and 285 nM.
